Assay results published in patent publication US20060035966A1, “Irreversible selective androgen receptor modulators and methods of use thereof” (priority 2002, published 2006).
Like-named read-outs stand apart in the source and are kept apart here.

Experiments:
[1] = system: AR-expressing LNCaP prostate cancer cell line; assay: Cytotoxicity, SRB assay, LNCaP; format: cell-based, human
Experimental: (§1) The SRB Assay was used to determine cell number during cytotoxocity experiments. The following protocol was used: • 1. […] Experimental cultures were cultured in 96-well microtiter plates (200 uL growth medium per well; 1,000-200,000 cells per well). • 3. Cultures were fixed with 50 uL 50% TCA (4° C.). (see cell fixation protocol for details). • 4. Fixed cells were stained with 50 uL 0.4% (wt/vol) SRB in 1% acetic acid for 10 minutes. • 5. SRB was removed and the cultures were quickly* rinsed 5 times with 1% acetic acid to remove unbound dye.** • 6. Cultures were air-dried overnight until there is no visible moisture. • 7. […] Absorbance was read at 540 nm. • * quickly performing rinsing process is to prevent desorption of protein-bound SRB • ** completely remove residual wash solution by sharply flicking plates over sink. Fixation of Cells Attached to the Plastic Substratum
(§2) The following protocol was used for fixing cells: • a. 50 uL of 50% TCA (4° C.) were gently layered on the top of growth medium in each well to make a final TCA concentration of 10%. • b. Cultures were incubated at 4° C. for 1 hour. • c. Cultures were washed 5 times with tap water to remove TCA, growth medium, low-molecular-weight metabolites, and serum protein. • d. Plates were air-dried until there was no visible moisture.

[2] = system: PPC-1 prostate cancer cell line; assay: Cytotoxicity, SRB assay, PPC-1; format: cell-based, human
Experimental: as §1, §2

[3] = system: TCCSUP bladder cancer cell line; assay: Cytotoxicity, SRB assay, TCCSUP; format: cell-based, human; conditions: read-out: IC50 TCCSUP
Experimental: as §1, §2

[4] = system: TSU prostate cancer cell line; assay: Cytotoxicity, SRB assay, TSU; format: cell-based, human; conditions: read-out: IC50 TSU
Experimental: as §1, §2

[5] = system: DU 145 prostate cancer cell line; assay: Cytotoxicity, SRB assay, DU 145; format: cell-based, human
Experimental: as §1, §2

[6] = system: PC-3 bone metastatic prostate cancer cell line; assay: Cytotoxicity, SRB assay, PC-3; format: cell-based, human
Experimental: PPC-1, LNCaP, TSU, PC-3, and DU145 were grown in PRMI-1640 medium containing 2 mM L-glutamine supplemented with 10% fetal bovine serum (FBS). Cells were maintained in a 5% CO2/95% air humidified atomosphere at 37° C.
(§3) The SRB Assay was used to determine cell number during cytotoxocity experiments. The following protocol was used: • 1. Cells were detached with 0.25% trypsin. • 2. Experimental cultures were cultured in 96-well microtiter plates (200 uL growth medium per well; 1,000-200,000 cells per well). • 3. Cultures were fixed with 50 uL 50% TCA (4° C.). (see cell fixation protocol for details). • 4. Fixed cells were stained with 50 uL 0.4% (wt/vol) SRB in 1% acetic acid for 10 minutes. • 5. SRB was removed and the cultures were quickly* rinsed 5 times with 1% acetic acid to remove unbound dye.** • 6. Cultures were air-dried overnight until there is no visible moisture. • 7. The cellular protein-bound SRB was dissolved with 200 uL unbuffered Tris base (10 mM, pH 10.5) for 30 minutes on a rocking platform shaker. • 8. Absorbance was read at 540 nm. • * quickly performing rinsing process is to prevent desorption of protein-bound SRB • ** completely remove residual wash solution by sharply flicking plates over sink. Fixation of Cells Attached to the Plastic Substratum
as §2

[7] = system: HT-29 colorectal adenocarcinoma cell line; assay: Cytotoxicity, SRB assay, HT-29; format: cell-based, human
Experimental: as §1, §2

[8] = system: CV-1 control cell line; assay: Cytotoxicity, SRB assay, CV-1 control; format: cell-based, African green monkey
Experimental: as §3, §2

[9] = system: PC-3 cells; assay: Induction of apoptosis, PC-3; format: cell-based, human
Experimental: (§4) The ability of DJ 1-31, DJ 1-29, S-NTBA and Compound V to induce apoptosis in different prostate cancer cell lines (DU 145, PC-3, TSU, PPC-1 and LNCaP), in other cancer cell lines (TCCSUP, HT-29 and MCF-7) and in a control cell line (CV-1) was determined and the results are shown in Table 6.

[10] = system: TSU cells; assay: Induction of apoptosis, TSU; format: cell-based, human
Experimental: as §4

[11] = system: TCCSUP cells; assay: Induction of apoptosis, TCCSUP; format: cell-based, human
Experimental: as §4

[12] = system: HT-29 cells; assay: Induction of apoptosis, HT-29; format: cell-based, human
Experimental: as §4

[13] = system: MCF-7 cells; assay: Induction of apoptosis, MCF-7; format: cell-based
Experimental: as §4

[14] = system: PPC-1 cells; assay: Induction of apoptosis, PPC-1; format: cell-based, human
Experimental: as §4

[15] = system: LNCaP cells; assay: Induction of apoptosis, LNCaP; format: cell-based, human
Experimental: as §4

[16] = system: DU 145 cells; assay: Induction of apoptosis, DU 145; format: cell-based, human
Experimental: as §4

[17] = system: CV-1 cells; assay: Induction of apoptosis, CV-1; format: cell-based, African green monkey
Experimental: as §4

[18] = Homo sapiens, LNCaP, read-out: IC50 LNCaP

Q: For `CC(=O)O[C@H]1C(=O)[C@@]2(C)[C@H]([C@H](OC(=O)c3ccccc3)[C@]3(O)C[C@H](OC(=O)[C@H](O)[C@@H](NC(=O)c4ccccc4)c4ccccc4)C(C)=C1C3(C)C)[C@]1(OC(C)=O)CO[C@@H]1C[C@@H]2O` [Taxol, reference compound], which IC50 [1, 18] is on record?
A: 0.0019 ± 0.0003 µM

Q: What about the IC50 ([2]; Homo sapiens, PPC-1, read-out: IC50 PPC-1) of the same compound?
A: 0.0027 ± 0.0003 µM

Q: And the IC50 ([3]; Homo sapiens, TCC-SUP)?
A: 0.0043 ± 0.0006 µM

Q: What about the IC50 ([4]; Homo sapiens) of the same compound?
A: 0.0024 ± 0.0008 µM

Q: What about the IC50 ([5]; Homo sapiens, DU-145, read-out: IC50 DU145) of the same compound?
A: 0.0027 ± 0.0003 µM

Q: What about the IC50 ([6]; Homo sapiens, Table 2A, Taxol in nM, read-out: IC50 PC-3) of the same compound?
A: 6.3 ± 0.6 nM

Q: What about the IC50 ([7]; Homo sapiens, HT-29, read-out: IC50 HT-29) of the same compound?
A: 0.0066 ± 0.0006 µM

Q: With `O=c1[nH]cc(F)c(=O)[nH]1` [Compound 5-FU, reference compound] as the compound, how does the IC50 ([1]; Table 2A, Example 1, read-out: IC50 LNCaP) read?
A: 4.1 ± 0.6 µM

Q: And the IC50 ([2]; Table 2A, Example 1, read-out: IC50 PPC-1)?
A: 5.1 ± 0.5 µM

Q: And the IC50 ([3]; Table 2B, Example 1)?
A: 3.6 ± 0.7 µM

Q: And the IC50 ([4]; Table 2A, Example 1)?
A: 2.7 ± 0.6 µM

Q: What about the IC50 ([8]; Table 2B, Example 1, read-out: IC50 CV-1 (Control)) of the same compound?
A: 5.4 ± 0.3 µM

Q: And the IC50 ([5]; Table 2A, Example 1, read-out: IC50 DU145)?
A: 4.5 ± 0.3 µM

Q: And the IC50 ([6]; 24 hr treatment, Example 3, read-out: IC50 PC-3 24 hr treatment)?
A: 20000 to 50000 nM

Q: And the IC50 ([6]; 4 day treatment, Example 3, read-out: IC50 PC-3 4 day treatment)?
A: 10900 nM

Q: And the IC50 ([6]; Table 2A, Example 1, read-out: IC50 PC-3)?
A: 10500 ± 600 nM

Q: What about the IC50 ([7]; Table 2B, Example 1, read-out: IC50 HT-29) of the same compound?
A: 5.4 ± 1.1 µM

Q: Which “Enrichment factor PC-3” value [9] does the source give for `C[C@@](O)(CBr)C(=O)Nc1ccc([N+](=O)[O-])c(C(F)(F)F)c1` [S-NTBA] here?
A: 0.750

Q: And the “Enrichment factor TSU” value [10]?
A: 0.705

Q: And the “Enrichment factor TCCSUP” value [11]?
A: 0.118

Q: What about the “Enrichment factor HT-29” value [12] of the same compound?
A: 1.538

Q: And the “Enrichment factor MCF-7” value [13]?
A: 2.012

Q: What about the IC50 ([1]; Homo sapiens, LNCaP, 24 h, read-out: IC50 LNCaP 24 hr treatment) of the same compound?
A: 4.4 µM

Q: What about the IC50 ([1]; Homo sapiens, LNCaP, 144 h, read-out: IC50 LNCaP 6 day treatment) of the same compound?
A: 2.1 µM

Q: And the IC50 [1, 18]?
A: 1.4 ± 0.2 µM

Q: And the IC50 ([2]; Homo sapiens, PPC-1, Table 2A, Example 1, read-out: IC50 PPC-1)?
A: 2.2 ± 0.2 µM

Q: What about the IC50 ([3]; Homo sapiens, TCC-SUP, Table 2B, Example 1) of the same compound?
A: 2.4 ± 0.3 µM

Q: What about the “Enrichment factor PPC-1” value [14] of the same compound?
A: 0.697

Q: And the IC50 ([4]; Homo sapiens, Table 2A, Example 1)?
A: 3.5 ± 0.2 µM

Q: What about the “Enrichment factor LNCaP” value [15] of the same compound?
A: 0.660

Q: What about the IC50 ([8]; Chlorocebus sabaeus, 24 h, drug incubation time 1 day, Example 4, read-out: IC50 CV-1) of the same compound?
A: > 50 µM

Q: And the IC50 ([8]; Chlorocebus sabaeus, 96 h, 4 day treatment, Example 2, read-out: IC50 CV-1 4 day treatment)?
A: 4.9 µM

Q: And the IC50 ([8]; Chlorocebus sabaeus, 96 h, drug incubation time 4 day, Example 4, read-out: IC50 CV-1)?
A: 38.6 ± 3.6 µM

Q: And the IC50 ([8]; Chlorocebus sabaeus, 24 hr treatment, Example 2, read-out: IC50 CV-1 24 hr treatment)?
A: 48.2 ± 10.9 µM

Q: And the IC50 ([8]; Chlorocebus sabaeus, Table 2B, Example 1, read-out: IC50 CV-1 (Control))?
A: 12.7 ± 0.3 µM

Q: And the “Enrichment factor DU 145” value [16]?
A: 1.929

Q: And the IC50 ([5]; Homo sapiens, DU-145, Table 2A, Example 1, read-out: IC50 DU145)?
A: 4.7 ± 0.3 µM

Q: And the IC50 ([6]; Homo sapiens, 96 h, 4 day treatment, Example 3, read-out: IC50 PC-3 4 day treatment)?
A: 18000 nM

Q: What about the IC50 ([6]; Homo sapiens, 24 hr treatment, Example 3, read-out: IC50 PC-3 24 hr treatment) of the same compound?
A: > 50000 nM

Q: What about the IC50 ([6]; Homo sapiens, Table 2A, Example 1, read-out: IC50 PC-3) of the same compound?
A: 3100 ± 600 nM

Q: And the IC50 ([7]; Homo sapiens, HT-29, Table 2B, Example 1, read-out: IC50 HT-29)?
A: 6.3 ± 0.3 µM

Q: And the “Enrichment factor CV-1” value [17]?
A: 0.393
